Reference: US20190233442A1, “SELECTIVE ESTROGEN RECEPTOR DOWN-REGULATORS (SERDS)” (Xavier University of Louisiana, priority 2016, published 2019)

What was measured:
MCF-7 = assay: Cytotoxicity in breast cancer cell lines (MCF-7); format: cell-based; conditions: MCF-7 cells
MCF-7/TamR = assay: Cytotoxicity in breast cancer cell lines (MCF-7/TamR); format: cell-based; conditions: MCF-7/TamR cells
T47D/PKCα = assay: Cytotoxicity in breast cancer cell lines (T47D/PKCα); format: cell-based; conditions: T47D/PKCα cells
BT474 = assay: Cytotoxicity in breast cancer cell lines (BT474); format: cell-based; conditions: BT474 cells
[1] = molecular target: T1, estrogen receptor α (ERα) (Homo sapiens, UniProt P03372); assay: Binding to estrogen receptor α; conditions: FIG. 15
T1 construct: endogenous in cells; host or cells: MCF-7
T1 sequence (P03372 1-595): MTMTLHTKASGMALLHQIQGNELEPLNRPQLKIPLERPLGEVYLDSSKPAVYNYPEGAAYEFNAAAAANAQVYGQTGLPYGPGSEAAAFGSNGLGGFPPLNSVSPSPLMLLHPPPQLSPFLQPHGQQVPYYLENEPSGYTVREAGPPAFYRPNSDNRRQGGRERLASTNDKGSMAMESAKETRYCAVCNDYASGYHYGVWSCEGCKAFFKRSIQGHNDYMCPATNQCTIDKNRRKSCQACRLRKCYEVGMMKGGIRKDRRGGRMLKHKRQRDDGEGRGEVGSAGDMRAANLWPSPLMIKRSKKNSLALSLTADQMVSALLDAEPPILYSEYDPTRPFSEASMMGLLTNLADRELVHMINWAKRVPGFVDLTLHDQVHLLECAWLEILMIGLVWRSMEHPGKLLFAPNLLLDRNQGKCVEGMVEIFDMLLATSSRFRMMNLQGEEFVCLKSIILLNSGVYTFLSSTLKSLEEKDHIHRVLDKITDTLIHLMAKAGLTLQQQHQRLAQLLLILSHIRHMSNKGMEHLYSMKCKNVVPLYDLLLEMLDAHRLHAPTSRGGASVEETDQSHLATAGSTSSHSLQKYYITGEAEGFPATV

[2] = molecular target: T1, estrogen receptor α (ERα); assay: Western blot of ER protein expression (down-regulation); format: cell-based
[3] = cited from earlier work

Compound	binding to estrogen receptor α (ERα) [1]	ER protein expression ([2]; FIG. 14, cell line not stated)	IC50 (MCF-7; Homo sapiens, MCF7) [nM]	IC50 (MCF-7/TamR; Homo sapiens, MCF7) [nM]	IC50 (T47D/PKCα; Homo sapiens) [nM]	IC50 (BT474; Homo sapiens, BT-474) [nM]	other results
4-Hydroxytamoxifen [reference compound]							IC50 (MCF-7): 3.3 nM; IC50 (MCF-7/TamR): 21100 nM; IC50 (T47D/PKCα): 540 nM; IC50 (BT474): 1430 nM
CC/C(=C(\c1ccc(/C=C/C(=O)O)cc1)c1ccc(B2OC(C)(C)C(C)(C)O2)cc1)c1ccccc1 [SERD 6]			7730	4530	6540	80500	

Further lines, with some results ahead:

binding to estrogen receptor α (ERα) [1]	ER protein expression ([2]; FIG. 14, cell line not stated)	Compound	IC50 (MCF-7; Homo sapiens, MCF7) [nM]	IC50 (MCF-7/TamR; Homo sapiens, MCF7) [nM]	IC50 (T47D/PKCα; Homo sapiens) [nM]	IC50 (BT474; Homo sapiens, BT-474) [nM]	other results
high affinity	dramatically downregulated	C[C@]12CC[C@@H]3c4ccc(B(O)O)cc4C[C@@H](CCCCCCCCC[S+]([O-])CCCC(F)(F)C(F)(F)F)[C@H]3[C@@H]1CC[C@@H]2O (some centres unmarked) [SERD 9]	3.2	44	370	390	
	dramatically downregulated	C[C@]12CC[C@@H]3c4ccc(O)cc4C[C@@H](CCCCCCCCC[S+]([O-])CCCC(F)(F)C(F)(F)F)[C@H]3[C@@H]1CC[C@@H]2O (some centres unmarked) [Fulvestrant]					peak blood concentration ([3]; higher dose of 500 mg, FINDER1 and FINDER2 clinical trials): < 25 ng/mL; time to reach steady state concentration in patient plasma ([3]; higher dose of 500 mg): 1 month; bioavailability if administered orally ([3]; oral): very poor bioavailability; time to reach steady state serum concentration ([3]; standard intramuscular (i.m.) injection): 3-4 months
high affinity		CCC(=C(c1ccc(/C=C/C(=O)O)cc1)c1ccc(B(O)O)cc1)c1ccccc1 [SERD 4]	1800	1200			ER protein expression ([2]; MCF-7 cells, FIG. 13): dramatically downregulated
